Key:
[1] = target: T1, Human plasma kallikrein (Homo sapiens, UniProt P03952); assay: Plasma Kallikrein Assay; type: biochemical; details: purified Human plasma kallikrein 0.5 nM, substrate Acetyl-K-P-R-AFC, pH 7.4
T1 construct: yields a heavy chain (371 amino acids) and a light chain (248 amino acids); purchased Enzyme Research Laboratories

[2] = target: human factor XIa (Homo sapiens, UniProt P03951); assay: Factor XIa Assay; type: biochemical; details: human factor XIa 0.04 nM, substrate GPR-AFC, 30 min pre-incubation at 25° C., pH 7.4; read-out: FXIa IC50
Sequence of human factor XIa (P03951 388-625 limits assumed): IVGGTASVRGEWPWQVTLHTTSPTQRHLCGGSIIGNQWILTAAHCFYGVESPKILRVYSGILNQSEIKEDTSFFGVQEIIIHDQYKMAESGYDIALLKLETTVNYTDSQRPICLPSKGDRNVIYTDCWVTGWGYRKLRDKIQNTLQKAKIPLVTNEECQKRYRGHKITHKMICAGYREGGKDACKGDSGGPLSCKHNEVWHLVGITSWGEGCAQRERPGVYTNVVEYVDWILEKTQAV
Sequence of human factor XIa (P03951 19-387 partner limits assumed): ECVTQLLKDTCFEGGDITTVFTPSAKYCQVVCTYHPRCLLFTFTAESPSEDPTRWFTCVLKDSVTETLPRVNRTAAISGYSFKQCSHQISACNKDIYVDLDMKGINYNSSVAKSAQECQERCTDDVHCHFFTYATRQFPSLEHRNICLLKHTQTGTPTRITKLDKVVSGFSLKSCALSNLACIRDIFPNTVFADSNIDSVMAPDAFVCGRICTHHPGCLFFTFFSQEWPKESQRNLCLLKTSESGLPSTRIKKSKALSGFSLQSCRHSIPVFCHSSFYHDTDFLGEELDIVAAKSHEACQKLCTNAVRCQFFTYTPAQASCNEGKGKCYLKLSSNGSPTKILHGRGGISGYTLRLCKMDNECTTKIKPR

T1 sequence (P03952 391-638 limits assumed): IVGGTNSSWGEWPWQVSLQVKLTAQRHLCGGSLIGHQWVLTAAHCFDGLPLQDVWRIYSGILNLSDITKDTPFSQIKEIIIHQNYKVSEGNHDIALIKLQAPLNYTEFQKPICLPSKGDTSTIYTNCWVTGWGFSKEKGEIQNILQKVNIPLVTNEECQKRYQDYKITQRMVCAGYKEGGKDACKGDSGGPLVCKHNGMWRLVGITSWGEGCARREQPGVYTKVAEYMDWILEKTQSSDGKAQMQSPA
T1 sequence (P03952 20-390 partner limits assumed): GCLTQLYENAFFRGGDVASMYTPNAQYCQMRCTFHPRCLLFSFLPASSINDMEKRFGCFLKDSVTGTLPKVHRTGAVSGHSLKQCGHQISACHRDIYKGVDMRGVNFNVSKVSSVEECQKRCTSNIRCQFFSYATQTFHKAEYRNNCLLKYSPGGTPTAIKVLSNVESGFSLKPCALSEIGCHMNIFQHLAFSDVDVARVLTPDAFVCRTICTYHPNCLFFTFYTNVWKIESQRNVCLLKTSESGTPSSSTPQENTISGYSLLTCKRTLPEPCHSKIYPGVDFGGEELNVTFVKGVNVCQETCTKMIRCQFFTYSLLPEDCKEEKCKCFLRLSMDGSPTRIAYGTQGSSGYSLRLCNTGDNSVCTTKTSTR

Row | IC50 [1] [nM] | IC50 [2] [nM] | SMILES
1 | 1.4 | 4270 | CO[C@H]1CN(C[C@@H]2CCN2c2ncc(C(C)n3cc(NC(=O)c4cncc(-c5c(C(F)F)ccc(Cl)c5F)n4)cn3)cn2)C[C@@H]1O (stereo partly drawn) [Example 165, 6-(3-Chloro-6-(difluoromethyl)-2-fluorophenyl)-N-(1-(1-(2-((S)-2-(((3S,4S)-3-hydroxy-4-methoxypyrrolidin-1-yl)methyl)azetidin-1-yl)pyrimidin-5-yl)ethyl)-1H-pyrazol-4-yl)pyrazine-2-carboxamide]
2 | 4.2 | 458 | Cc1nc(N2CCC2)ncc1Cn1cc(NC(=O)c2cncc(-c3c(C(F)F)ccc(Cl)c3F)n2)cn1 [Example 8, N-(1-((2-(Azetidin-1-yl)-4-methylpyrimidin-5-yl)methyl)-1H-pyrazol-4-yl)-6-(3-chloro-6-(difluoromethyl)-2-fluorophenyl)pyrazine-2-carboxamide]
3 | 29.8 | 3660 | CC(c1cnc(N2CC3(CC3)C2)nc1)n1cc(NC(=O)c2cncc(-c3c(C(F)F)ccc(Cl)c3F)n2)cn1 (stereo not shown) [Example 99, N-(1-(1-(2-(5-Azaspiro[2.3]hexan-5-yl)pyrimidin-5-yl)ethyl)-1H-pyrazol-4-yl)-6-(3-chloro-6-(difluoromethyl)-2-fluorophenyl)pyrazine-2-carboxamide]
4 | 3.7 | 595 | Cc1ncc(-c2c(C(F)F)ccc(Cl)c2F)nc1C(=O)Nc1cnn(C(CO)c2cnc(N3CCC3)nc2)c1 (single isomer, unassigned) [Example 46, (S or R)-N-(1-(1-(2-(Azetidin-1-yl)pyrimidin-5-yl)-2-hydroxyethyl)-1H-pyrazol-4-yl)-6-(3-chloro-6-(difluoromethyl)-2-fluorophenyl)-3-methylpyrazine-2-carboxamide]
5 | 1.2 | 4850 | CC(c1cnc(N2CC[C@H]2CN2CC[C@@H](O)C2)nc1)n1cc(NC(=O)c2cncc(-c3c(C(F)F)ccc(Cl)c3F)n2)cn1 (stereo partly drawn) [Example 163, 6-(3-Chloro-6-(difluoromethyl)-2-fluorophenyl)-N-(1-(1-(2-((S)-2-(((R)-3-hydroxypyrrolidin-1-yl)methyl)azetidin-1-yl)pyrimidin-5-yl)ethyl)-1H-pyrazol-4-yl)pyrazine-2-carboxamide]
6 | 15.8 | 1110 | O=C(Nc1cnn(Cc2cnc(N3CCC3)nc2CO)c1)c1cncc(-c2c(C(F)F)ccc(Cl)c2F)n1 [Example 2, N-(1-((2-(Azetidin-1-yl)-4-(hydroxymethyl)pyrimidin-5-yl)methyl)-1H-pyrazol-4-yl)-6-(3-chloro-6-(difluoromethyl)-2-fluorophenyl)pyrazine-2-carboxamide]
7 | 26.9 | 8930 | NC(=O)[C@H]1CCCN1c1ncc(Cn2cc(NC(=O)c3cncc(-c4c(C(F)F)ccc(Cl)c4F)n3)cn2)cn1 [Example 97, (R)-N-(1-((2-(2-Carbamoylpyrrolidin-1-yl)pyrimidin-5-yl)methyl)-1H-pyrazol-4-yl)-6-(3-chloro-6-(difluoromethyl)-2-fluorophenyl)pyrazine-2-carboxamide]
8 | 1.4 | 485 | Cc1nc(N2CCC2)ncc1[C@@H](C)n1cc(NC(=O)c2cncc(-c3c(C(F)F)ccc(Cl)c3F)n2)cn1 (single isomer, unassigned) [Example 70]
9 | 6.6 | 1350 | C[C@@H](c1cnc(N2CCC2)nc1)n1cc(NC(=O)c2cncc(-c3c(C(F)F)ccc(Cl)c3F)n2)cn1 [Example 5, (S)-N-(1-(1-(2-(Azetidin-1-yl)pyrimidin-5-yl)ethyl)-1H-pyrazol-4-yl)-6-(3-chloro-6-(difluoromethyl)-2-fluorophenvl)pyrazine-2-carboxamide]
10 | 1 | 2260 | CC(c1cnc(N2C[C@H]3C[C@H]3C2C(=O)N(C)C)nc1)n1cc(NC(=O)c2cncc(-c3c(C(F)F)ccc(Cl)c3F)n2)cn1 (single isomer, unassigned) [Example 202, (1R,2S,5S or 1S,2R,5R)-3-(5-((R or S)-1-(4-(6-(3-Chloro-6-(difluoromethyl)-2-fluorophenyl)pyrazine-2-carboxamido)-1H-pyrazol-1-yl)ethyl)pyrimidin-2-yl)-N,N-dimethyl-3-azabicyclo[3.1.0]hexane-2-carboxamide]
11 | 1 | 8920 | CC(c1cnc(N2CC[C@H]2CN2CC(O)(C(C)C)C2)nc1)n1cc(NC(=O)c2cncc(-c3c(C(F)F)ccc(Cl)c3F)n2)cn1 (stereo partly drawn) [Example 173, 6-(3-Chloro-6-(difluoromethyl)-2-fluorophenyl)-N-(1-(1-(2-((S)-2-((3-hydroxy-3-isopropylazetidin-1-yl)methyl)azetidin-1-yl)pyrimidin-5-yl)ethyl)-1H-pyrazol-4-yl)pyrazine-2-carboxamide]
12 | 21.2 | 4100 | O=C(O)c1ncc(-c2c(C(F)F)ccc(Cl)c2F)nc1C(=O)Nc1cnn(Cc2cnc(N3CCC3)nc2)c1 [Example 137, 3-((1-((2-(Azetidin-1-yl)pyrimidin-5-yl)methyl)-1H-pyrazol-4-yl)carbamoyl)-5-(3-chloro-6-(difluoromethyl)-2-fluorophenyl)pyrazine-2-carboxylic acid]
13 | 6.2 | 3510 | O=C(Nc1cnn(Cc2cnc(N3CCC3)c(F)c2)c1)c1cncc(-c2c(C(F)F)ccc(Cl)c2F)n1 [Example 12, N-(1-((6-(Azetidin-1-yl)-5-fluoropyridin-3-yl)methyl)-1H-pyrazol-4-yl)-6-(3-chloro-6-(difluoromethyl)-2-fluorophenyl)pyrazine-2-carboxamide]
14 | 13.1 | 2000 | O=C(Nc1cnn(Cc2ccc(N3CCC3)nc2)c1)c1cncc(-c2c(C(F)F)ccc(Cl)c2F)n1 [Example 18, N-(1-((6-(Azetidin-1-yl)pyridin-3-yl)methyl)-1H-pyrazol-4-yl)-6-(3-chloro-6-(difluoromethyl)-2-fluorophenyl)pyrazine-2-carboxamide]
15 | 44.3 | 4430 | O=C(Nc1cnn(C(c2cnc(N3CCC3)nc2)C(F)F)c1)c1cncc(-c2c(C(F)F)ccc(Cl)c2F)n1 (single isomer, unassigned) [Example 36, (S or R)-N-(1-(1-(2-(azetidin-1-yl)pyrimidin-5-yl)-2,2-difluoroethyl)-1H-pyrazol-4-yl)-6-(3-chloro-6-(difluoromethyl)-2-fluorophenyl)pyrazine-2-carboxamide]
16 | 0.4 | 528 | C[C@H](CO)NC[C@@H]1[C@@H]2C[C@@H]2CN1c1ncc(Cn2cc(NC(=O)c3cncc(-c4c(C(F)F)ccc(Cl)c4F)n3)cn2)cn1 [Example 143, 6-(3-Chloro-6-(difluoromethyl)-2-fluorophenyl)-N-(1-((2-((1R,2S,5S)-2-((((R)-1-hydroxypropan-2-yl)amino)methyl)-3-azabicyclo[3.1.0]hexan-3-yl)pyrimidin-5-yl)methyl)-1H-pyrazol-4-yl)pyrazine-2-carboxamide]
17 | 1.3 | 478 | Cc1nc(C(C)n2cc(NC(=O)c3cncc(-c4c(C(F)F)ccc(Cl)c4F)n3)cn2)cnc1N1CCC1 (single isomer, unassigned) [Example 39, (S or R)-N-(1-(1-(5-(azetidin-1-yl)-6-methylpyrazin-2-yl)ethyl)-1H-pyrazol-4-yl)-6-(3-chloro-6-(difluoromethyl)-2-fluorophenyl)pyrazine-2-carboxamide]
18 | 17.8 | 2150 | CC(c1cnc(N2CCC2)nc1)n1cc(NC(=O)c2cncc(-c3c(Br)ccc(Cl)c3F)n2)cn1 (stereo not shown) [Example 62, N-(1-(1-(2-(Azetidin-1-yl)pyrimidin-5-yl)ethyl)-1H-pyrazol-4-yl)-6-(6-bromo-3-chloro-2-fluorophenyl)pyrazine-2-carboxamide]
19 | 8.1 | 3690 | Cc1nc(Cn2cc(NC(=O)c3cncc(-c4c(C(F)F)ccc(Cl)c4F)n3)cn2)cnc1N1CC(F)(F)C1 [Example 15, 6-(3-Chloro-6-(difluoromethyl)-2-fluorophenyl)-N-(1-((5-(3,3-difluoroazetidin-1-yl)-6-methylpyrazin-2-yl)methyl)-1H-pyrazol-4-yl)pyrazine-2-carboxamide]
20 | 0.3 | 502 | CC(C)(O)CNC[C@@H]1[C@@H]2C[C@@H]2CN1c1ncc(Cn2cc(NC(=O)c3cncc(-c4c(C(F)F)ccc(Cl)c4F)n3)cn2)cn1 [Example 139, 6-(3-Chloro-6-(difluoromethyl)-2-fluorophenyl)-N-(1-((2-((1R,2S,5S)-2-(((2-hydroxy-2-methylpropyl)amino)methyl)-3-azabicyclo[3.1.0]hexan-3-yl)pyrimidin-5-yl)methyl)-1H-pyrazol-4-yl)pyrazine-2-carboxamide]
21 | 3.8 | 869 | Cc1ncc(-c2c(C(F)F)ccc(Cl)c2F)nc1C(=O)Nc1cnn(C(C)c2cnc(N3CCC3)nc2)c1 (single isomer, unassigned) [Example 27, (S or R)-N-(1-(1-(2-(azetidin-1-yl)pyrimidin-5-yl)ethyl)-1H-pyrazol-4-yl)-6-(3-chloro-6-(difluoromethyl)-2-fluorophenyl)-3-methylpyrazine-2-carboxamide]
22 | 8.1 | 1520 | CC(c1cnc(N2CC3CC3C2)nc1)n1cc(NC(=O)c2cncc(-c3c(C(F)F)ccc(Cl)c3F)n2)cn1 (single isomer, unassigned) [Example 32, N-(1-((1R or 1S)-1-(2-(3-azabicyclo[3.1.0]hexan-3-yl)pyrimidin-5-yl)ethyl)-1H-pyrazol-4-yl)-6-(3-chloro-6-(difluoromethyl)-2-fluorophenyl)pyrazine-2-carboxamide]
23 | 0.3 | 4730 | CN(CC1CCCN1c1ncc(Cn2cc(NC(=O)c3cncc(-c4c(C(F)F)ccc(Cl)c4F)n3)cn2)cn1)CC1(O)CC1 (single isomer, unassigned) [Example 141, (R or S)-6-(3-Chloro-6-(difluoromethyl)-2-fluorophenyl)-N-(1-((2-(2-((((1-hydroxycyclopropyl)methyl)(methyl)amino)methyl)pyrrolidin-1-yl)pyrimidin-5-yl)methyl)-1H-pyrazol-4-yl)pyrazine-2-carboxamide]
